Structures can show the parent of a compound that is named as a salt.

One assay concerns MV-4-11 cells. As to the kind of experiment: In vitro cell proliferation assay (CellTiter-Glo), MV-4-11. In kind it is cell-based. The note with it: Homo sapiens, MV4-11, 72 hours. How it is done: (§1) In Vitro Cell Proliferation Assay
MV-4-11 (biphenotypic B myelomonocytic leukemia) cell line was obtained from ATCC.
Media for MV-4-11 cell line contained RPMI 1640 or EMEM plus 2 mM Glutamine and 10% Fetal bovine serum.
(§2) BaF3-PIM1 and MV-4-11 cells were seeded at 125 cells/well and 1250 cells/well respectively in a 384-well white plates in complete medium and treated with compounds dissolved in 0.1% DMSO, 24 h after seeding.
(§3) The cells were incubated at 37° C. and 5% CO2 and after 72 hours the plates were processed using CellTiter-Glo assay (Promega) following the manufacturer's instruction.
(§4) CellTiter-Glo was a homogenous method based on the quantification of the ATP present, an indicator of metabolitically active cells. ATP was quantified using a system based on luciferase and D-luciferin resulting into light generation. The luminescent signal was proportional to the number of cells present in culture.
(§5) Briefly 25 μl/well reagent solution were added to each wells and after 5 minutes shacking microplates were red by Envision (PerkinElmer) luminometer. The luminescent signal was proportional to the number of cells present in culture.
(§6) Inhibitory activity was evaluated comparing treated versus control data using Assay Explorer (MDL) program. IC50 was calculated using sigmoidal interpolation curve.

The test system of another assay is BaF3-PIM1 cells. Description: In vitro cell proliferation assay (CellTiter-Glo), BaF3-PIM1. Type of assay: cell-based. Conditions: 72 hours. How it is done:
as §1, §2, §3, §4, §5, §6

In another assay the target is human PIM1 (Homo sapiens (Human), UniProt P11309). As to the kind of experiment: Biochemical assay for inhibitors of PIM1 kinase activity (trans-phosphorylation, Dowex technique). The note with it: ATP 200 μM, Aktide 25 μM, enzyme 1 nM; read-out: PIM-1 IC50. How it is done:
Biochemical Assay for Inhibitors of PIM1 Kinase Activity
The inhibitory activity of putative kinase inhibitors and the potency of selected compounds were determined using a trans-phosphorylation assay.
Specific peptide or protein substrates were trans-phosphorylated by their specific ser-thr or tyr kinase in the presence of ATP traced with ^33P-γ-ATP, and in the presence of their own optimal buffer and cofactors.
At the end of the phosphorylation reaction, more than 98% unlabeled ATP and radioactive ATP were captured by an excess of the ion exchange dowex resin; the resin then settled down to the bottom of the reaction plate by gravity. Supernatant was subsequently withdrawn and transferred into a counting plate, then evaluated by β-counting.
Reagents/Assay Conditions i. Dowex Resin Preparation
500 g of wet resin (SIGMA, custom prepared resin DOWEX 1×8 200-400 mesh, 2.5 Kg) were weighed out and diluted to 2 L in 150 mM sodium formate, pH 3.00.
The resin was allowed to settle down (some hours) and then the supernatant was discarded.
After three washes as above over a couple of days, the resin was allowed to settle and two volumes (wrt the resin volume) of 150 mM sodium formate buffer were added.
The pH was then measured and should have been around 3.00.
The washed resin was stable for more than one week; the stock resin was kept at 4° C. before use.
The buffer for PIM1 assay was composed of HEPES 50 mM, at pH 7.5, with 10 mM MgCl2, 1 mM DTT, 3 μM NaVO3, and 0.2 mg/mL BSA.
Full-length human PIM1 was expressed and purified as described in Bullock A N, et al., J. Biol. Chem. 2005, 280, 41675-82.
1.7 μM PIM1 was incubated 1 h at 28° C. in the presence of 125 μM ATP.
ATP concentration: 200 μM; ^33P-γ-ATP: 6 nM; Enzyme concentration: 1 nM Substrate concentration Aktide (Chemical Abstract Service Registry Number 324029-01-8): 25 μM iv. Robotized Dowex Assay
The test mix consisted of:
1) 3× Enzyme mix (done in Kinase Buffer 3×), 5 μL/well
2) 3× substrate and ATP mix (done in ddH2O), together with ^33P-γ-ATP, 5 μL/well 3) 3× test compounds (diluted into ddH2O—3% DMSO)—5 μL/well See below for compound dilution and assay scheme […]
An automated station (Biomek FX, Beckman) was used for serial dilutions, producing 1:3 dilutions in 100% DMSO, from line A1 to A10, for all the compounds in the column.
Data were analyzed by an internally customized version of the “Assay Explorer” SW package, which provided sigmoidal fitting of the ten-dilution curves for IC50 determination in secondary assay/hit confirmation routines.

The next assay concerns the target human PIM2 (Homo sapiens (Human), UniProt Q9P1W9). As to the kind of experiment: PIM2 kinase inhibition assay: Dowex technique. Type of assay: biochemical. The note with it: ATP 4 μM, Aktide 5 μM, enzyme 1.5 nM; read-out: PIM-2 IC50. How it is done: Method for PIM2 Kinase Inhibition Assay: Dowex Technique
The buffer for PIM2 assay was composed of HEPES 50 mM, at pH 7.5, with 1 mM MgCl2, 1 mM DTT, 3 μM Na3VO4, and 0.2 mg/mL BSA.
Full-length human PIM2 was expressed and purified as described in Fedorov O, et al., PNAS 2007 104, 51, 20523-28. ii. Assay Conditions (Final Concentrations)
Enzyme concentration=1.5 nM; ATP=4 μM; ^33P-γ-ATP=1 nM
Aktide substrate (Chemical Abstract Service Registry Number 324029-01-8)=5 μM iii. Robotized Dowex Assay
See above: same procedure as described for PIM1.

human PIM1, sequence (P11309 whole entry): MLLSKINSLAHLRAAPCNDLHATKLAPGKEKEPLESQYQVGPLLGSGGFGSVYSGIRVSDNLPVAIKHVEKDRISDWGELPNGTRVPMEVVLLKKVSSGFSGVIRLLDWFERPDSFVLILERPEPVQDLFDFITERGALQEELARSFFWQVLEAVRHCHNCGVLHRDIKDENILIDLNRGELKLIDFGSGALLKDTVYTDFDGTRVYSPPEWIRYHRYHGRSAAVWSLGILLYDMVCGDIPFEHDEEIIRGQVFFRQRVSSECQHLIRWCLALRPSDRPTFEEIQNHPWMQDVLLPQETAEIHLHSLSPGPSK
human PIM2, sequence (Q9P1W9 whole entry): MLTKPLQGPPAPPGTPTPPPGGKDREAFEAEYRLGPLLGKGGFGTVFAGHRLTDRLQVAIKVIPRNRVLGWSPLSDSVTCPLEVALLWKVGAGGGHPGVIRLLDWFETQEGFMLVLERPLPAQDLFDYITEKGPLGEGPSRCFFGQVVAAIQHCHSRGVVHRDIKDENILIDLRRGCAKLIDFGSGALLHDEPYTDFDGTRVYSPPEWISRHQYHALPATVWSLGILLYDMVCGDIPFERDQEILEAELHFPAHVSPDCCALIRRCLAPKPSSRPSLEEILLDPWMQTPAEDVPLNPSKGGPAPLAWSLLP

For the compound `NCCC1CNC(=O)c2cc(-c3cccc(OC(F)(F)F)c3)c(-c3ccccc3)n21` (stereo not shown) [Compound 28, 4-(2-aminoethyl)-6-phenyl-7-[3-(trifluoromethoxy)phenyl]-3,4-dihydropyrrolo[1,2-a]pyrazin-1(2H)-one hydrochloride], the IC50 in the assay with MV-4-11 cells came out at 1740 nM; with BaF3-PIM1 cells, 275 nM; on human PIM1, 7 nM; at human PIM2 it was 55 nM.

Regarding `NCCC1CNC(=O)c2cc(-c3cccc(OC(F)(F)F)c3)c(-c3ccsc3)n21` (stereo not shown) [Compound 29, 4-(2-aminoethyl)-6-(thiophen-3-yl)-7-[3-(trifluoromethoxy)phenyl]-3,4-dihydropyrrolo[1,2-a]pyrazin-1(2H)-one hydrochloride], the IC50 with MV-4-11 cells came to 2620 nM; in the assay with BaF3-PIM1 cells, 315 nM; at human PIM1, 19 nM; at human PIM2 it was 143 nM.

Take `Cc1cccc(-c2c(-c3cccc(OC(F)(F)F)c3)cc3n2C(CCN)CNC3=O)c1` (stereo not shown) [Compound 31, 4-(2-aminoethyl)-6-(3-methylphenyl)-7-[3-(trifluoromethoxy)phenyl]-3,4-dihydropyrrolo[1,2-a]pyrazin-1(2H)-one hydrochloride]: the 50% inhibitory concentration (IC50) in the assay with MV-4-11 cells amounted to 2590 nM; with BaF3-PIM1 cells, 326 nM; at human PIM1, 23 nM; at human PIM2 it was 51 nM.

For `NCCC1CNC(=O)c2cc(-c3cccc(C(F)(F)F)c3)c(-c3ccsc3)n21` (stereo not shown) [Compound 40, 4-(2-aminoethyl)-6-(thiophen-3-yl)-7-[3-(trifluoromethyl)phenyl]-3,4-dihydropyrrolo[1,2-a]pyrazin-1(2H)-one hydrochloride], the 50% inhibitory concentration (IC50) was determined as 5040 nM in the assay with MV-4-11 cells, 340 nM with BaF3-PIM1 cells, 43 nM at human PIM1 and 155 nM at human PIM2.

In the case of `Cc1cccc(-c2c(-c3ccnc(Cl)c3)cc3n2C(CCN)CNC3=O)c1` (stereo not shown) [Compound 45, 4-(2-aminoethyl)-7-(2-chloropyridin-4-yl)-6-(3-methylphenyl)-3,4-dihydropyrrolo[1,2-a]pyrazin-1(2H)-one hydrochloride], the half-inhibitory concentration (IC50) with MV-4-11 cells was 3170 nM; in the assay with BaF3-PIM1 cells it was 3960 nM; on human PIM1 it was 41 nM; at human PIM2, 102 nM.

Regarding `NCCC1CNC(=O)c2cc(-c3cc(Cl)ccc3F)c(-c3ccsc3)n21` (stereo not shown) [Compound 55, 4-(2-aminoethyl)-7-(5-chloro-2-fluorophenyl)-6-(thiophen-3-yl)-3,4-dihydropyrrolo[1,2-a]pyrazin-1(2H)-one hydrochloride], the IC50 was 3600 nM in the assay with MV-4-11 cells, 140 nM with BaF3-PIM1 cells, 17 nM at human PIM1 and 77 nM at human PIM2.

Consider `NCCC1CNC(=O)c2cc(-c3cc(Cl)ccc3F)c(-c3ccccc3)n21` (stereo not shown) [Compound 57, 4-(2-aminoethyl)-7-(5-chloro-2-fluorophenyl)-6-phenyl-3,4-dihydropyrrolo[1,2-a]pyrazin-1(2H)-one hydrochloride], for which the IC50 was determined as 2600 nM in the assay with MV-4-11 cells, 239 nM in the assay on BaF3-PIM1 cells, 16 nM at human PIM1 and 32 nM at human PIM2.

`CN1CCN(Cc2ccc(-c3c(-c4cccc(OC(F)(F)F)c4)cc4n3[C@@H](CCCl)CNC4=O)cc2)CC1` [Compound 106, (4S)-4-(2-chloroethyl)-6-{4-[(4-methylpiperazin-1-yl)methyl]phenyl}-7-[3-(trifluoromethoxy)phenyl]-3,4-dihydropyrrolo[1,2-a]pyrazin-1(2H)-one]: the results for the IC50 in the assay on BaF3-PIM1 cells, at human PIM1 and on human PIM2 were 210 nM, 27 nM and 99 nM, respectively.

As for `CS(=O)(=O)c1ccc(-c2c(-c3cccc(OC(F)(F)F)c3)cc3n2[C@@H](CCCN)CNC3=O)cc1` [Compound 109, (4S)-4-(3-aminopropyl)-6-[4-(methylsulfonyl)phenyl]-7-[3-(trifluoromethoxy)phenyl]-3,4-dihydropyrrolo[1,2-a]pyrazin-1(2H)-one hydrochloride], the concentration for half-maximal inhibition (IC50) with BaF3-PIM1 cells came out at 6510 nM; at human PIM1, 11 nM; at human PIM2, 82 nM.

Turning to `COc1ccc(-c2c(-c3cccc(OC(F)(F)F)c3)cc3n2[C@@H](CCN)CNC3=O)cc1F` [Compound 113, (4S)-4-(2-aminoethyl)-6-(3-fluoro-4-methoxyphenyl)-7-[3-(trifluoromethoxy)phenyl]-3,4-dihydropyrrolo[1,2-a]pyrazin-1(2H)-one hydrochloride], the IC50 is 53 nM in the assay on BaF3-PIM1 cells, 23 nM on human PIM1 and 36 nM on human PIM2.

In the case of `NCC[C@H]1CNC(=O)c2cc(-c3cccc(OC(F)(F)F)c3)c(-c3ccc(C4(N)CC4)cc3)n21` [Compound 130, (4S)-6-[4-(1-aminocyclopropyl)phenyl]-4-(2-aminoethyl)-7-[3-(trifluoromethoxy)phenyl]-3,4-dihydropyrrolo[1,2-a]pyrazin-1(2H)-one hydrochloride], the half-maximal inhibitory concentration (IC50) in the assay on BaF3-PIM1 cells was determined as 150 nM; on human PIM1 it was 1 nM; at human PIM2 it was 3 nM.

For the compound `CN1CCN(Cc2ccc(-c3c(-c4cccc(OC(F)(F)F)c4)cc4n3[C@@H](CCCN)CNC4=O)cc2)CC1` [Compound 135, (4S)-4-(3-aminopropyl)-6-{4-[(4-methylpiperazin-1-yl)methyl]phenyl}-7-[3-(trifluoromethoxy)phenyl]-3,4-dihydropyrrolo[1,2-a]pyrazin-1(2H)-one dihydrochloride], the IC50 with BaF3-PIM1 cells came to 6450 nM; on human PIM1, 1 nM; on human PIM2 it was 13 nM.

For `CC(C)[C@H]1CNC(=O)c2cc(-c3cccc(OC(F)(F)F)c3)c(-c3ccc(CN)cc3)n21` [Compound 138, (4S)-6-[4-(aminomethyl)phenyl]-4-(propan-2-yl)-7-[3-(trifluoromethoxy)phenyl]-3,4-dihydropyrrolo[1,2-a]pyrazin-1(2H)-one], the half-maximal inhibitory concentration (IC50) in the assay with BaF3-PIM1 cells was found to be 276 nM; at human PIM1, 12 nM; at human PIM2 it was 173 nM.

`Cc1cccc(-c2c(-c3cccc(OC(F)(F)F)c3)cc3n2[C@@H](CCNC(=N)N)CNC3=O)c1` [Compound 148, 1-(2-{(4S)-6-(3-methylphenyl)-1-oxo-7-[3-(trifluoromethoxy)phenyl]-1,2,3,4-tetrahydropyrrolo[1,2-a]pyrazin-4-yl}ethyl)guanidine hydrochloride]: the IC50 in the assay with BaF3-PIM1 cells is 110 nM; on human PIM1 it was 8 nM; at human PIM2, 12 nM.

On to `CS(=O)(=O)c1ccc(-c2c(-c3cccc(OC(F)(F)F)c3)cc3n2[C@@H](CCNC(=N)N)CNC3=O)cc1` [Compound 149, 1-(2-{(4S)-6-[4-(methylsulfonyl)phenyl]-1-oxo-7-[3-(trifluoromethoxy)phenyl]-1,2,3,4-tetrahydropyrrolo[1,2-a]pyrazin-4-yl}ethyl)guanidine hydrochloride], for which the results for the half-inhibitory concentration (IC50) in the assay with BaF3-PIM1 cells, at human PIM1 and at human PIM2 were 1770 nM, 8 nM and 19 nM, respectively.

The record behind these values is patent publication US9181258B2, “Substituted 3,4-dihydropyrrolo[1,2-a]pyrazin-1(2H)-ones as protein kinase inhibitors” (NERVIANO MEDICAL SCIENCES S.R.L., priority 2011, dated 2015).
